Measured values as given in the ASAP Discovery antiviral challenge data (2025).
Values after ≈ are worked out from the molar mass of the structure shown. Values joined by “and” are separate entries in the source; they are usually repeats but may differ in a detail not shown here. Identical values can stand only once.

Tests used:
[1] = mdck_mdr1
[2] = not given; remark: listed apart in the source
[3] = mouse; liver_microsomes
[4] = human; liver_microsomes

| SMILES | Papp [1] | solubility kinetic | logD [2] | microsomal CLint [3] | microsomal CLint [4] |
| --- | --- | --- | --- | --- | --- |
| CC(C)[C@@H](Nc1ncnc2[nH]c(-c3cnn(C)c3C#N)cc12)c1ccc2c(c1)OCCO2 | 5.11 ×10⁻⁶ cm/s | 20 µM (≈ 8.59 µg/mL) | 3.4 | 129 µL/min/mg | 47 µL/min/mg |
| CC(C)[C@H](CO)Nc1ncnc2[nH]ccc12 | 13.1 ×10⁻⁶ cm/s |  | 1.69 | 10 µL/min/mg | 6 µL/min/mg |
| CC(C)[C@H](Nc1ncnc2[nH]c(-c3cnn(C)c3C#N)cc12)c1ccc2c(c1)OCCO2 | 5.56 ×10⁻⁶ cm/s | 15 µM (≈ 6.44 µg/mL) | 3.3 | 257 µL/min/mg | 706 µL/min/mg |
| CNC(=O)c1cc(Cl)c(F)cc1NS(=O)(=O)c1ccc(Oc2ccccc2Cl)cc1 | 6.11 ×10⁻⁶ cm/s | 49 µM (≈ 23 µg/mL) |  | 45.6 µL/min/mg | 71.3 µL/min/mg |
| CNC(=O)c1cc(Cl)ccc1NS(=O)(=O)c1ccc(Oc2ccccc2Cl)cc1 | 4.91 ×10⁻⁶ cm/s | 25 µM (≈ 11.3 µg/mL) | 2.4 | 94 µL/min/mg | 106 µL/min/mg |
| COc1cc(-c2cc(NC(=O)c3cc(F)cc4[nH]ncc34)cc3c2CNC3)ccn1 | 0.788 ×10⁻⁶ cm/s | 180 µM (≈ 72.6 µg/mL) | 2 | 260 µL/min/mg |  |
| COc1cc(Cc2c(-c3ccc(F)cc3)noc2C)nc(N2CCNCC2)n1 | 4.78 ×10⁻⁶ cm/s | 325 µM (≈ 125 µg/mL) | 2.1 | 33 µL/min/mg | 15 µL/min/mg |
| COc1ccc(C(=O)Nc2cccc(/C=C3/C(=O)NC(=O)c4ccccc43)c2)cc1 | 2.33 ×10⁻⁶ cm/s | 23 µM (≈ 9.16 µg/mL) | 3.6 | 127 µL/min/mg | 180 µL/min/mg |
| Cc1cc(-c2noc(C(F)(F)F)n2)ccc1OCCCc1cc(C(=O)N(C)C)no1 | 2.26 ×10⁻⁶ cm/s | 9 µM (≈ 3.82 µg/mL) |  | 24.4 µL/min/mg | 11 µL/min/mg |
| Cc1cc(CCCOc2c(C)cc(-c3noc(C(F)(F)F)n3)cc2C)on1 | 1.42 ×10⁻⁶ cm/s | 18 µM (≈ 6.86 µg/mL) | 4.2 | 21.5 µL/min/mg | 11.6 µL/min/mg |
| Cn1cc2c(C(=O)Nc3ccc4c(c3)CNC4)cc(F)cc2n1 | 3.4 ×10⁻⁶ cm/s | 309 µM (≈ 95.9 µg/mL) | 0.2 | 18.2 µL/min/mg |  |
| N#Cc1cc2c(cc1NC(=O)c1cc(F)cc3[nH]ncc13)CNC2 | 3.9 ×10⁻⁶ cm/s | 193 µM (≈ 62 µg/mL) | 0.6 | 288 µL/min/mg | 16.7 µL/min/mg |
| NCc1cccc(NC(=O)[C@@H](NC(=O)OCc2ccccc2)c2ccc(OCc3ccccc3)cc2)c1 | 1.53 ×10⁻⁶ cm/s | 23 µM (≈ 11.4 µg/mL) | 3.2 | 1 µL/min/mg | 11 µL/min/mg |
| O=C(/C=C/c1ccccc1)C(=O)N1CCN(CCc2ccccc2)CC1 | 3 ×10⁻⁶ cm/s | 239 µM (≈ 83.3 µg/mL) | 3.3 | 181 µL/min/mg | 167 µL/min/mg |
| O=C(Nc1cc(Br)c2c(c1)CNC2)c1cc(F)cc2[nH]ncc12 | 3.4 ×10⁻⁶ cm/s | 4 µM (≈ 1.5 µg/mL) | 1.8 | 145 µL/min/mg | 13.6 µL/min/mg |
| O=C(Nc1cc2c(c(-c3c[nH]c(=O)c(F)c3)c1)CNC2)c1cc(F)cc2[nH]ncc12 | 0.651 ×10⁻⁶ cm/s | 66 µM (≈ 26.9 µg/mL) | 0.4 | 243 µL/min/mg |  |
| O=C(Nc1cc2c(c(C3=CCOCC3)c1)CNC2)c1cc(F)cc2[nH]ncc12 | 1.1 ×10⁻⁶ cm/s | 157 µM (≈ 59.4 µg/mL) | 0.9 | 152 µL/min/mg |  |
| O=C(Nc1cc2c(c(C3=CCS(=O)(=O)CC3)c1)CNC2)c1cc(F)cc2[nH]ncc12 | 1.3 ×10⁻⁶ cm/s | 141 µM (≈ 60.1 µg/mL) | -0.1 | 96.9 µL/min/mg |  |
| O=C(Nc1cc2c(cc1Br)CNC2)c1cc(F)cc2[nH]ncc12 | 7.65 ×10⁻⁶ cm/s | 47 µM (≈ 17.6 µg/mL) | 1.1 | 299 µL/min/mg | 11.4 µL/min/mg |
| O=C(Nc1cc2c(cc1C1CC1)CNC2)c1cc(F)cc2[nH]ncc12 | 3.41 ×10⁻⁶ cm/s | 189 µM (≈ 63.6 µg/mL) | 0.7 | 86.8 µL/min/mg |  |
| O=C(Nc1ccc2c(c1)CNC2)c1cc(Br)cc2[nH]c(-c3ccccc3)nc12 | 0.0942 ×10⁻⁶ cm/s |  | 3.6 | 43.8 µL/min/mg | 12.8 µL/min/mg |
| O=C(Nc1ccc2c(c1)CNC2)c1cc(Cl)cc2c1cnn2C1CCC1 | 1 ×10⁻⁶ cm/s | 172 µM (≈ 63.1 µg/mL) | 2 | 13.4 µL/min/mg |  |
| O=C(Nc1ccc2c(c1)CNC2)c1cc(F)cc(-c2cn[nH]c2)c1 | 1.62 ×10⁻⁶ cm/s | 184 µM (≈ 59.3 µg/mL) | 0.7 | 553 µL/min/mg | 36.3 µL/min/mg |
| O=C(Nc1ccc2c(c1)CNC2)c1cc(F)cc2[nH]c(-c3ccc(F)cc3)nc12 | 0.1 ×10⁻⁶ cm/s | 6 µM (≈ 2.34 µg/mL) | 2.9 | 36.8 µL/min/mg |  |

| SMILES | Papp [1] | solubility kinetic | logD [2] | microsomal CLint [3] | microsomal CLint [4] |
| --- | --- | --- | --- | --- | --- |
| O=C(Nc1ccc2c(c1)CNC2)c1cc(F)cc2c1CCC2 | 10.7 ×10⁻⁶ cm/s | 187 µM (≈ 55.4 µg/mL) | 1.2 | 37.4 µL/min/mg |  |
| O=C(Nc1ccc2c(c1)CNC2)c1cccc2[nH]c(C(F)(F)F)cc12 | 4.1 ×10⁻⁶ cm/s | 372 µM (≈ 128 µg/mL) | 1.5 | 12.7 µL/min/mg | 14.1 µL/min/mg |
| O=C(Nc1ccccc1)Nc1ccc(C(=O)NC2c3cccc(O)c3CC2C(=O)O)cc1 (stereo not given) | 0.7 ×10⁻⁶ cm/s | 319 µM (≈ 138 µg/mL) | 0.12 | 2 µL/min/mg | 9 µL/min/mg |
| O=C(O)c1cc(Cl)ccc1NS(=O)(=O)c1ccc(Oc2ccccc2Cl)cc1 | 4.01 ×10⁻⁶ cm/s | 369 µM (≈ 162 µg/mL) | 3 | 13 µL/min/mg | 155 µL/min/mg |
| CCCC[C@H](NC(=O)OC(C)(C)C)C(=O)N[C@H](C(=O)NCc1ccc(CN)cc1)c1ccc(OCc2ccccc2)cc1 (mixture of isomers) | 0.833 ×10⁻⁶ cm/s | 143 µM |  | 7.44 µL/min/mg | 56 µL/min/mg |
| C[C@H](C(=O)O)[C@H](NC(=O)c1ncnc2[nH]ccc12)c1ccc(Br)cc1 (mixture of isomers) | 1.4 ×10⁻⁶ cm/s | 386 µM | 0.5 | 4 µL/min/mg | 5 µL/min/mg |
| CC(C)[C@H](Nc1ncnc(N)c1Cl)c1ccc2c(c1)S(=O)(=O)CCC2 (racemic) | 10.1 ×10⁻⁶ cm/s |  | 2.4 | 204 µL/min/mg | 79 µL/min/mg |
| CC(C)[C@H](Nc1ncnc2[nH]c(-c3cnn(C)c3C#N)cc12)c1ccc2c(c1)OCCO2 (racemic) | 4.2 ×10⁻⁶ cm/s | 17 µM (≈ 7.3 µg/mL) | 3 | 218 µL/min/mg | 74 µL/min/mg |
| CC(C)[C@H](Nc1ncnc2[nH]c(-c3cnn(CC(N)=O)c3)cc12)c1ccc2c(c1)OCCO2 (racemic) | 0.9 ×10⁻⁶ cm/s | 345 µM (≈ 154 µg/mL) | 0.9 | 41 µL/min/mg | 99 µL/min/mg |
| CC(C)[C@H](Nc1ncnc2[nH]cc(C(N)=O)c12)c1ccc2c(c1)OCCO2 (racemic) | 11.1 ×10⁻⁶ cm/s | 375 µM (≈ 138 µg/mL) | 3.2 | 142 µL/min/mg | 143 µL/min/mg |
| CC(C)[C@H](Nc1ncnc2[nH]ccc12)c1ccc2c(c1)S(=O)(=O)CCC2 (racemic) | 3.3 ×10⁻⁶ cm/s | 385 µM (≈ 143 µg/mL) | 2.5 | 138 µL/min/mg | 37 µL/min/mg |
| CNC(=O)c1cc2c(N[C@H](c3ccc4c(c3)OCCO4)C(C)C)ncnc2[nH]1 (racemic) | 1.96 ×10⁻⁶ cm/s | 380 µM (≈ 145 µg/mL) | 2.76 | 55 µL/min/mg | 79 µL/min/mg |
| COc1ccc([C@H](CC(=O)O)NC(=O)c2ncnc3[nH]ccc23)cc1 (racemic) | 1.7 ×10⁻⁶ cm/s |  | -0.38 | 2 µL/min/mg | 7 µL/min/mg |
| COc1ccc([C@H](NC(=O)c2ncnc3[nH]ccc23)C(C)c2nnn[nH]2)cc1 (mixture of isomers) | 1.13 ×10⁻⁶ cm/s |  | 0 | 1 µL/min/mg | 2 µL/min/mg |
| COc1ccc2c(c1)CCN(c1ncnc3[nH]ccc13)[C@H]2C(C)C (racemic) | 7 ×10⁻⁶ cm/s | 14 µM (≈ 4.51 µg/mL) | 4.33 | 321 µL/min/mg | 60 µL/min/mg |
| O=C(Nc1cccc2c(C(=O)N[C@H]3c4ccccc4C[C@H]3C(=O)O)c[nH]c12)NC1CC1 (racemic) | 1.8 ×10⁻⁶ cm/s |  | -0.05 | 4 µL/min/mg | 6 µL/min/mg |
| CC(C)NC(=O)[C@H](Nc1ccc2c(c1)CNC2)c1cc(Cl)cc2[nH]c(-c3ccccc3)nc12 (single isomer, unassigned) | 0.2 ×10⁻⁶ cm/s | 134 µM (≈ 61.6 µg/mL) | 2.8 | 11 µL/min/mg |  |
| CC(C)[C@H](Nc1ncnc2[nH]c(-c3cnn(C)c3C#N)cc12)c1ccc2c(c1)NC(=O)CO2 (single isomer, unassigned) | 1.22 ×10⁻⁶ cm/s and 2.35 ×10⁻⁶ cm/s | 26 µM and 19 µM |  | 81 µL/min/mg and 147 µL/min/mg | 115 µL/min/mg and 52 µL/min/mg |
| CC(C)[C@H](Nc1ncnc2[nH]c(-c3cnn(CC(N)=O)c3)cc12)c1ccc2c(c1)OCCO2 (single isomer, unassigned) | 1.09 ×10⁻⁶ cm/s and 1.87 ×10⁻⁶ cm/s | 280 µM and 332 µM | 2.9 | 16 µL/min/mg and 42 µL/min/mg |  |
| CC(C)[C@H](Nc1ncnc2[nH]ccc12)c1ccc2c(c1)NC(=O)CO2 (single isomer, unassigned) | 3.4 ×10⁻⁶ cm/s and 8.7 ×10⁻⁶ cm/s | 371 µM and 374 µM | 1.8 and 2.2 | 37 µL/min/mg and 80 µL/min/mg |  |
| CCNC(=O)c1cc2c(N[C@H](c3ccc4c(c3)S(=O)(=O)CCC4)C(C)C)ncnc2[nH]1 (single isomer, unassigned) | 0.717 ×10⁻⁶ cm/s and 0.532 ×10⁻⁶ cm/s | 337 µM and 316 µM | 2.7 and 2.8 | 64 µL/min/mg and 54 µL/min/mg |  |
| CNC(=O)c1cc2c(N[C@H](c3ccc4c(c3)S(=O)(=O)CCC4)C(C)C)ncnc2[nH]1 (single isomer, unassigned) | 0.891 ×10⁻⁶ cm/s and 0.377 ×10⁻⁶ cm/s | 374 µM and 397 µM | 2.3 and 2.4 | 47 µL/min/mg and 23 µL/min/mg |  |
| CNCc1cc(-c2cc3c(N[C@H](c4ccc5c(c4)S(=O)(=O)CCC5)C(C)C)ncnc3[nH]2)co1 (single isomer, unassigned) |  | 358 µM and 345 µM | 2.1 and 2.2 | 40 µL/min/mg and 54 µL/min/mg | 67 µL/min/mg and 133 µL/min/mg |
